14 compounds from patent US20250289813A1, “CDK INHIBITORS, PHARMACEUTICAL COMPOSITIONS, AND THERAPEUTIC APPLICATIONS” (ONQUALITY PHARMACEUTICALS CHINA LTD., priority 2022, published 2025) can be followed below.

For one experiment, the target named is CDK4/cyclin D1 (Homo sapiens (Human), UniProt P11802). Briefly: CDK4 Caliper Mobility Shift assay. Format: biochemical. As for the experimental part: (§1) A Caliper Mobility Shift assay was used to determine the inhibitory activities of a compound against CDK4/cyclin D1 and CDK6/cyclin D1 in their respective kinase buffers (CDK4: 20 mM HEPES, pH 7.5, and 0.01% Triton X-100; CDK6: 50 mM HEPES, pH 7.5, and 0.0015% BRIJ-35). The CDK4/cyclin D1 and CDK6/cyclin D1 were obtained from PROQINASE and CARNA, respectively. A FAM-labeled peptide was obtained from GL.
CDK4/cyclin D1, sequence (P11802 whole entry): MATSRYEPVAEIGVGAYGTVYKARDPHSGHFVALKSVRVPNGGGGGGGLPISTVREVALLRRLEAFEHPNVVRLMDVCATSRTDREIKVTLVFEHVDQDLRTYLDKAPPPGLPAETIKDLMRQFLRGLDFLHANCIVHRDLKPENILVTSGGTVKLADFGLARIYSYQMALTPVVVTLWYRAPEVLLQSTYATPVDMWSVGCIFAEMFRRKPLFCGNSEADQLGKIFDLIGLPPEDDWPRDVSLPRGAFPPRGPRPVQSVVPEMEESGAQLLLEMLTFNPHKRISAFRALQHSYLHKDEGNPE
CDK4/cyclin D1, sequence (P24385 whole entry partner): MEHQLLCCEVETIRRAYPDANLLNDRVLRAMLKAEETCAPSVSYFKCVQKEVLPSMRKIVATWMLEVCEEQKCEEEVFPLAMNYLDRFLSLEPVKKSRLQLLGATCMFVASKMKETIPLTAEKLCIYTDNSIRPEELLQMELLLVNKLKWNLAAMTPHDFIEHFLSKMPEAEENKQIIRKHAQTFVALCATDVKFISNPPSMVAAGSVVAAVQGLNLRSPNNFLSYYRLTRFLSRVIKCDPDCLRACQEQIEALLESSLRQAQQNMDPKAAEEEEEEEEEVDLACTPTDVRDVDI
(§2) The compound at predetermined concentrations was pre-incubated with CDK4/cyclin D1 or CDK6/cyclin D1 in a 384-well microplate at room temperature for 10 min. The FAM-labeled peptide and ATP were subsequently added to initiate the kinase reactions. The final enzyme concentrations were 15 nM for CDK4 and 7.5 nM for CDK6. The final ATP concentrations were […] for CDK4 and […] for CDK6. The microplate was allowed to incubate at 28° C. The kinase reactions were stopped by adding a stop buffer (100 mM HEPES, pH 7.5, 0.012% BRIJ-35, 0.2% Coating Reagent 3 (Caliper Life Sciences), and […]). Conversion data were recorded and utilized to calculate the percent inhibition values for each compound and an IC50 value was then determined. The results are summarized in Table 1, where the symbol “***” represents a value no greater than 200 nM, the symbol “**” represents a value greater than 200 nM but no greater than 500 nM, and the symbol “*” represents a value greater than 500 nM.

In another experiment the target is CDK6/cyclin D1 (Homo sapiens (Human), UniProt Q00534). Briefly: CDK6 Caliper Mobility Shift assay. The experiment is classed as biochemical. On the procedure:
as §1, §2

Experiment [1] deals with MCF-7 human breast cancer cells. Nature of the experiment: CELLTITER-GLO luminescent cell viability assay. The settings on record: MCF7, 192 h, MCF-7 cells, 8 days, read-out: EC50 (Effect on Cell Viability). Format: cell-based. On the procedure: A CELLTITER-GLO luminescent cell viability assay was carried out using MCF-7 human breast cancer cells under the normal growth condition. The MCF-7 human breast cancer cells were grown at 37° C. in a 5% CO2 humidified incubator in EMEM, supplemented 10% FBS, 0.01 mg/mL bovine insulin. The cells were seeded at a 3,000 cells/well in a 96-well tissue culture plate. The cells were allowed to adhere overnight in the incubator. A compound (5 μL) in a medium at a predetermined concentration. After the cells was incubated at 37° C. for 8 days, a CELLTITER-GLO detection solution (100 μL) was added. The cells were mixed on an orbital shaker for 5 min and then incubated for additional 10 min. The plate was read with an ENVISION reader. The results are summarized in Table 2, where the symbol “+++” represents a value no greater than 1 μM, the symbol “++” represents a value greater than 1 μM but no greater than 10 μM, and the symbol “+” represents a value greater than 10 μM.
A general note: Cellular ATP, detected with luciferase, serves as a proxy for viable cell number.

Each structure is given as a SMILES string. A value given as a limit tells only on which side of the number the result lay.

CDK6/cyclin D1, sequence (Q00534 whole entry): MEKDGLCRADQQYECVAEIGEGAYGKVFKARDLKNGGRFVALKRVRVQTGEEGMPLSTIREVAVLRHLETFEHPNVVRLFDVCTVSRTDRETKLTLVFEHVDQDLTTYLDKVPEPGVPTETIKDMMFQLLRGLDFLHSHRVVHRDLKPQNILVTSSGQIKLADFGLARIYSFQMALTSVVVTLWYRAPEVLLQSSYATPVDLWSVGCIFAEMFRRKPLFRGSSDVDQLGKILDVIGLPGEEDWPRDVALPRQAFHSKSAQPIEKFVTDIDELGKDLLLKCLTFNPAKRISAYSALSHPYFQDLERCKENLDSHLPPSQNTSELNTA
CDK6/cyclin D1, sequence (P24385 whole entry partner): as the sequence (P24385 whole entry partner) above

As a reminder, the IC50 is the concentration that gives 50% inhibition. A word on the EC50: it is the midpoint of the concentration-response curve. Consider `COCCOC(=O)NS(=O)(=O)N1CCN(c2ccc(Nc3ncc4c(C)c(C(C)=O)c(=O)n(C5CCCC5)c4n3)nc2)CC1` [Compound A8, 2-Methoxyethyl ((4-(6-((6-acetyl-8-cyclopentyl-5-methyl-7-oxo-7,8-dihydropyrido[2,3-d]pyrimidin-2-yl)amino)pyridin-3-yl)piperazin-1-yl)sulfonyl)carbamate], for which the IC50 at CDK4/cyclin D1 was 200 to 500 nM; on CDK6/cyclin D1, not above 200 nM. The EC50 in experiment [1] is more than 10000 nM.
In the case of `CC(=O)OCCOC(=O)NS(=O)(=O)N1CCN(c2ccc(Nc3ncc4c(C)c(C(C)=O)c(=O)n(C5CCCC5)c4n3)nc2)CC1` [Compound A9, 2-((((4-(6-((6-Acetyl-8-cyclopentyl-5-methyl-7-oxo-7,8-dihydropyrido[2,3-d]-pyrimidin-2-yl)amino)pyridin-3-yl)piperazin-1-yl)sulfonyl)carbamoyl)oxy)ethyl acetate], the half-maximal inhibitory concentration (IC50) on CDK4/cyclin D1 and on CDK6/cyclin D1 was not above 200 nM each time. Further, the concentration giving a half-maximal response (EC50) in experiment [1] was 1000 to 10000 nM.
Consider `CC(=O)c1c(C)c2cnc(Nc3ccc(N4CCN(S(=O)(=O)NC(=O)OCCNC(=O)[C@@H](N)C(C)C)CC4)cn3)nc2n(C2CCCC2)c1=O` [Compound A14, (S)-2-(2-Amino-3-methylbutanamido)ethyl ((4-(6-((6-acetyl-8-cyclopentyl-5-methyl-7-oxo-7,8-dihydropyrido[2,3-d]pyrimidin-2-yl)amino)pyridin-3-yl)piperazin-1-yl)sulfonyl)carbamate], for which the IC50 at CDK4/cyclin D1 and at CDK6/cyclin D1 was not above 200 nM in each case. Also, in experiment [1], the EC50 was more than 10000 nM.
`CC(=O)c1c(C)c2cnc(Nc3ccc(N4CCN(S(=O)(=O)NC(=O)OCCNC(=O)[C@@H](N)CO)CC4)cn3)nc2n(C2CCCC2)c1=O` [Compound A18, (S)-2-(2-Amino-3-hydroxypropanamido)ethyl ((4-(6-((6-acetyl-8-cyclopentyl-5-methyl-7-oxo-7,8-dihydropyrido[2,3-d]pyrimidin-2-yl)amino)pyridin-3-yl)piperazin-1-yl)-sulfonyl)carbamate]: the half-maximal inhibitory concentration (IC50) on CDK4/cyclin D1 and on CDK6/cyclin D1 was not above 200 nM in each case. Moreover, the EC50 in experiment [1] was more than 10000 nM.
Turning to `CSCC[C@H](N)C(=O)NCCOC(=O)NS(=O)(=O)N1CCN(c2ccc(Nc3ncc4c(C)c(C(C)=O)c(=O)n(C5CCCC5)c4n3)nc2)CC1` [Compound A19, (S)-2-(2-Amino-4-(methylthio)butanamido)ethyl ((4-(6-((6-acetyl-8-cyclopentyl-5-methyl-7-oxo-7,8-dihydropyrido[2,3-d]pyrimidin-2-yl)amino)pyridin-3-yl)piperazin-1-yl)-sulfonyl)carbamate], the IC50 on CDK4/cyclin D1 and on CDK6/cyclin D1 was not above 200 nM throughout. Besides, in experiment [1], the 50% effective concentration (EC50) was more than 10000 nM.
With `CC(=O)c1c(C)c2cnc(Nc3ccc(N4CCN(S(=O)(=O)NC(=O)OC5CCC5)CC4)cn3)nc2n(C2CCCC2)c1=O` [Compound A23, Cyclobutyl ((4-(6-((6-acetyl-8-cyclopentyl-5-methyl-7-oxo-7,8-dihydropyrido[2,3-d]pyrimidin-2-yl)amino)pyridin-3-yl)piperazin-1-yl)sulfonyl)carbamate], the 50% inhibitory concentration (IC50) is more than 500 nM at CDK4/cyclin D1 and not above 200 nM at CDK6/cyclin D1. For the same compound, the EC50 in experiment [1] was in the range of 1000 to 10000 nM.
In the same order, the values of `CC(=O)c1c(C)c2cnc(Nc3ccc(N4CCN(S(=O)(=O)NC(=O)OC5CC5)CC4)cn3)nc2n(C2CCCC2)c1=O` [Compound A24, Cyclopropyl ((4-(6-((6-acetyl-8-cyclopentyl-5-methyl-7-oxo-7,8-dihydropyrido[2,3-d]pyrimidin-2-yl)amino)pyridin-3-yl)piperazin-1-yl)sulfonyl)carbamate] are not above 200 nM, not above 200 nM and 1000 to 10000 nM.
In the same order, the values of `CCOC(=O)NS(=O)(=O)N1CCN(c2ccc(Nc3ncc4c(C)c(C(C)=O)c(=O)n(C5CCCC5)c4n3)nc2)CC1` [Compound A25, Ethyl ((4-(6-((6-acetyl-8-cyclopentyl-5-methyl-7-oxo-7,8-dihydropyrido[2,3-d]-pyrimidin-2-yl)amino)pyridin-3-yl)piperazin-1-yl)sulfonyl)carbamate] are 200 to 500 nM, not above 200 nM and 1000 to 10000 nM.
For the compound `COC(=O)NS(=O)(=O)N1CCN(c2ccc(Nc3ncc4c(C)c(C(C)=O)c(=O)n(C5CCCC5)c4n3)nc2)CC1` [Compound A26, Methyl ((4-(6-((6-acetyl-8-cyclopentyl-5-methyl-7-oxo-7,8-dihydropyrido[2,3-d]-pyrimidin-2-yl)amino)pyridin-3-yl)piperazin-1-yl)sulfonyl)carbamate], the IC50 on CDK4/cyclin D1 and at CDK6/cyclin D1 was not above 200 nM each time. The 50% effective concentration (EC50) in experiment [1] lay within 1000 to 10000 nM.
As to `CC(=O)c1c(C)c2cnc(Nc3ccc(N4CCN(S(=O)(=O)NC(=O)OC(C)C)CC4)cn3)nc2n(C2CCCC2)c1=O` [Compound A27, Isopropyl ((4-(6-((6-acetyl-8-cyclopentyl-5-methyl-7-oxo-7,8-dihydropyrido[2,3-d]pyrimidin-2-yl)amino)pyridin-3-yl)piperazin-1-yl)sulfonyl)carbamate], the half-maximal inhibitory concentration (IC50) on CDK4/cyclin D1 is not above 200 nM; on CDK6/cyclin D1 it was 200 to 500 nM. Moreover, the EC50 in experiment [1] was 1000 to 10000 nM.
In the same order, the values of `CC(=O)c1c(C)c2cnc(Nc3ccc(N4CCN(S(=O)(=O)NC(=O)C(N)C(C)C)CC4)cn3)nc2n(C2CCCC2)c1=O` (stereo not drawn) [Compound A30, N-((4-(6-((6-Acetyl-8-cyclopentyl-5-methyl-7-oxo-7,8-dihydropyrido[2,3-d]-pyrimidin-2-yl)amino)pyridin-3-yl)piperazin-1-yl)sulfonyl)-2-amino-3-methylbutanamide] are not above 200 nM, not above 200 nM and not above 1000 nM.
In the same order, the values of `CC(=O)c1c(C)c2cnc(Nc3ccc(N4CCN(S(=O)(=O)NC(=O)[C@H]5CCCN5)CC4)cn3)nc2n(C2CCCC2)c1=O` [Compound A33, (R)—N-((4-(6-((6-Acetyl-8-cyclopentyl-5-methyl-7-oxo-7,8-dihydropyrido[2,3-d]-pyrimidin-2-yl)amino)pyridin-3-yl)piperazin-1-yl)sulfonyl)pyrrolidine-2-carboxamide] are not above 200 nM, not above 200 nM and not above 1000 nM.
In the same order, the values of `CC(=O)NS(=O)(=O)N1CCN(c2ccc(Nc3ncc4c(C)c(C(C)=O)c(=O)n(C5CCCC5)c4n3)nc2)CC1` [Compound A34, N-((4-(6-((6-Acetyl-8-cyclopentyl-5-methyl-7-oxo-7,8-dihydropyrido[2,3-d]-pyrimidin-2-yl)amino)pyridin-3-yl)piperazin-1-yl)sulfonyl)acetamide] are not above 200 nM, not above 200 nM and more than 10000 nM.
On to `CC(=O)c1c(C)c2cnc(Nc3ccc(N4CCN(S(=O)(=O)NC(=O)C(C)C)CC4)cn3)nc2n(C2CCCC2)c1=O` [Compound A36, N-((4-(6-((6-Acetyl-8-cyclopentyl-5-methyl-7-oxo-7,8-dihydropyrido[2,3-d]-pyrimidin-2-yl)amino)pyridin-3-yl)piperazin-1-yl)sulfonyl)isobutyramide], for which the concentration for half-maximal inhibition (IC50) is not above 200 nM on CDK4/cyclin D1 and 200 to 500 nM at CDK6/cyclin D1. In experiment [1], the concentration for a half-maximal effect (EC50) was in the range of 1000 to 10000 nM.
